What all share (test): NCI-60 cell line screen, 48 h
For assay [1], the system named is SN12C renal.
For assay [2], the system named is KM12 colon.
Assay [3] has as its system OVCAR-5 ovarian.
In assay [4] the test system is ACHN renal.
The test system of assay [5] is HCT-15 colon.
For assay [6], the system named is NCI-H460 lung.
The subject of assay [7] is SK-MEL-28 melanoma.
In assay [8] the test system is SW-620 colon.
Assay [9] has as its system HL-60(TB) leukemia.
For assay [10], the system named is M14 melanoma.

Where “and” joins values, the source holds several entries; their conditions need not be identical. Equal entries are not always repeated.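 Each compound was tested at five concentrations against cells in 96-well plates for 48 hours. GI50 marks 50% less growth. TGI: total growth inhibition.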

`C/C=C1\NC(=O)[C@H]2CSSCCC=C[C@H](CC(=O)N[C@H](C(C)C)C(=O)N2)OC(=O)[C@H](C(C)C)NC1=O`: the GI50 was < 0.01 µM in [1]; < 0.01 µM in assay [2]; < 0.01 µM and 0.000261 µM in assay [3]; < 0.01 µM in [4]; 0.203 µM and 0.0551 µM in [5]; < 0.01 µM in assay [6]. Further, the GI50 was < 0.01 µM in assay [7]; < 0.01 µM in [8]; < 0.01 µM and 0.000299 µM in [9]; < 0.01 µM in [10]. Moreover, the TGI in [4] is 0.0459 µM and 0.0364 µM; in [5], 3.75 µM and 1.59 µM; in assay [7], < 0.01 µM and 0.0175 µM and < 0.0122 µM; in [8], < 0.01 µM and 0.0195 µM and < 0.0161 µM; in assay [10], 0.263 µM and 0.0826 µM and 0.206 µM.

For `Cc1cc(C)c(C(=O)c2no[n+]([O-])c2C(=O)c2c(C)cc(C)c(Br)c2C)c(C)c1Br`, the TGI in assay [1] was determined as 33.4 µM; in [2], 26.4 µM; in [3], 33 µM; in assay [4], 34.9 µM; in [5], 30 µM; in assay [6] it was 45.8 µM. Further, the TGI in assay [7] came out at 27.5 µM; in assay [8] it was 26.9 µM; in [9] it was 15.2 µM; in assay [10] it was 25.1 µM.

As for `N.N.N.N.O=C([O-])C(Cl)Cl.O=C([O-])C(Cl)Cl.[Co+3].[O-][Cl+3]([O-])([O-])[O-]`, the GI50 in assay [1], in assay [2], in assay [3], in assay [4], in [5] and in [6] was > 100 µM each time. Further, the GI50 in [7], in assay [8], in [9] and in [10] was > 100 µM in each case. Moreover, the TGI in assay [1], in [2], in assay [3], in assay [4], in assay [5] and in [6] was > 100 µM each time. Moreover, the TGI in [7], in assay [8], in assay [9] and in assay [10] was > 100 µM each time.

Consider `CC[C@]1(O)C(=O)OCc2c1cc1n(c2=O)Cc2cc3c(N)cccc3nc2-1`, for which the TGI in assay [1], in assay [2], in assay [3], in [4], in assay [5] and in assay [6] was > 100 µM in each case. The TGI in [7], in assay [8], in [9] and in assay [10] was > 100 µM throughout.

As to `CCOC(=O)c1s/c(=N\Nc2nc3ccccc3cc2C2OCCO2)n(Cc2ccccc2)c1C`, the TGI in assay [1], in [2], in assay [3], in assay [4], in [5] and in assay [6] was > 100 µM in each case. Moreover, the TGI in [7], in [8], in assay [9] and in [10] was > 100 µM in each case.

As for `COc1ccc2cc(-c3c(-c4ccncc4)nc(-c4ccc(S(C)(=O)=O)cc4C)n3C)ccc2c1`, the GI50 was 8.22 µM in assay [1]; 8.05 µM in [2]; 14.7 µM in [3]; 8.36 µM in assay [4]; 7.97 µM in assay [5]; 7.77 µM in assay [6]. The GI50 is 9.28 µM in assay [7], 9.68 µM in [8], 6.54 µM in assay [9] and 10.1 µM in assay [10]. Moreover, the TGI in assay [1], in assay [2], in [3], in assay [4], in assay [5] and in assay [6] was > 25 µM in each case. In addition, the TGI in assay [7] is 24.9 µM; in assay [8], > 25 µM; in assay [9], 21.7 µM; in assay [10] it was > 25 µM.

For the molecule `Cc1nc2sccn2c1-c1csc(Nc2cccc(Cl)c2C)n1`, the GI50 in [1] is 6.06 µM; in [2] it was 3.79 µM; in [3], 24 µM; in [4], 6.84 µM; in assay [5] it was 3.62 µM; in [6] it was 3.58 µM. Moreover, the GI50 was 5.67 µM in assay [7], 3.91 µM in [8], 3.43 µM in assay [9] and 5.04 µM in [10]. For the same molecule, the TGI in assay [1] is > 100 µM; in [2], 21.8 µM; in assay [3], > 100 µM; in assay [4], > 100 µM; in assay [5], 31.9 µM; in assay [6], 20.3 µM. Also, the TGI turned out to be 44.1 µM in [7], 24.3 µM in [8], 19.3 µM in assay [9] and 28.5 µM in assay [10].

For `CCC[n+]1cc2cc(OC)c(OC)cc2c2c1-c1cc3c(cc1C2)OCO3`, the GI50 in [1] is 0.638 µM; in assay [2], 2.12 µM; in assay [3], 32.9 µM; in assay [4] it was 9.45 µM; in [5] it was 46.9 µM; in [6], 2.98 µM. The GI50 in [7] was 3.03 µM; in assay [8], 2.83 µM; in assay [9], 11 µM; in [10] it was 7.64 µM. The TGI was 6.84 µM in assay [1]; 7.03 µM in [2]; 67.8 µM in assay [3]; 36.7 µM in assay [4]; > 100 µM in [5]; 11.3 µM in [6]. The TGI in assay [7] is 10.6 µM; in assay [8], 23.7 µM; in assay [9], > 54.1 µM; in assay [10] it was 22 µM.

Consider `COc1ccc(C2=NN(C=O)C(c3cccc(Nc4ccnc5cc(Cl)ccc45)c3)C2)cc1` (stereo not given), for which the GI50 is 4.45 µM in assay [1]; 2.18 µM in [2]; 11.3 µM in assay [3]; 4.59 µM in assay [4]; 2.13 µM in [5]; 2.73 µM in assay [6]. Besides, the GI50 in assay [7] is 8.12 µM; in [8] it was 1.73 µM; in [9], 2.03 µM; in [10], 2.34 µM. Further, the TGI is > 100 µM in assay [1]; 37 µM in [2]; > 100 µM in [3]; 62.7 µM in assay [4]; 17 µM in assay [5]; 15.7 µM in assay [6]. The TGI in [7] amounted to 25.3 µM; in [8] it was 13.2 µM; in [9], 4.91 µM; in [10] it was 15.9 µM.

Source of the values: PubChem BioAssay (NCI).
